Measured values: PMC8145327, “S100P Interacts with p53 while Pentamidine Inhibits This Interaction” (Biomolecules, 2021)

Target: T1, S100P (Homo sapiens, UniProt P25815)
T1 construct: 15N-labeled human S100P (95 amino acid residues)
T1 sequence (P25815 1-95): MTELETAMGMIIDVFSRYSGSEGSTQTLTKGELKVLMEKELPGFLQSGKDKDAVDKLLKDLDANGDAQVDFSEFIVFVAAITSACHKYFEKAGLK
Assay: 1H-15N HSQC NMR titration (chemical shift perturbation)
Assay type: binding

Kd: 48.7 µM
SMILES: N=C(N)c1ccc(OCCCCCOc2ccc(C(=N)N)cc2)cc1 [pentamidine]
